Test [1] relates to LR1 (RNA, aptamer) GGGAGAGGAGGGAGAUAGAUAUCAAACUAAACACUUGAGGCUCGAUCUUUAUUGUAUUUACACCAUCUUGUGCAUCAUUUCGUGGAUGCCACAGGAC
Put plainly: fluorescence polarization, displacement of Cy3-ODN. The note with it: 3 mM Mg2+, PBS, 0.005% Tween 20, 21 °C; for binding: 100 nM Cy3-ODN, 500 nM RNA, tested at 100 μM. Background: Polarisation of emitted light reports the rotation of a fluorescent probe.

For test [2], the system named is R3 (RNA, aptamer) GGGAGAGGAGGGAGAUAGAUAUCAAGUCGGAGGUAUGAGGCUCGAUCACGAAGAAGGCCGAUUGGGUUACCCUCCUUUUUCGUGGAUGCCACAGGAC
Put plainly: ITC. The conditions noted are these: 300 μM ligand into 20 μM RNA.

For test [3], the system named is R2 (RNA, aptamer) GGGAGAGGAGGGAGAUAGAUAUCAAGAGGUACGUAUGAGGCUCGAUCGGAAGGCUGGUCUAGGUCCCGUCCUGACCGUUUCGUGGAUGCCACAGGAC
Put plainly: fluorescence polarization, displacement of Cy3-ODN. The conditions noted are these: 3 mM Mg2+, PBS, 0.005% Tween 20, 21 °C, 9-nt Cy3-ODN, 500 nM RNA, 0.1-1 mM compound.

Test [4] relates to R3 (RNA, aptamer) GGGAGAGGAGGGAGAUAGAUAUCAAGUCGGAGGUAUGAGGCUCGAUCACGAAGAAGGCCGAUUGGGUUACCCUCCUUUUUCGUGGAUGCCACAGGAC
Put plainly: fluorescence polarization, displacement of Cy3-ODN. The note with it: 3 mM Mg2+, PBS, apparent, 0.005% Tween 20, 21 °C, 9-nt Cy3-ODN displaced, inhibitor vs response fit.

Test [5] has as its system T1 (RNA, aptamer) GGGAGAGGAGGGAGAUAGAUAUCAACUAUCGCUUGUGAGGCUCGAUCUUUAUGUGCCCCUCCUUCAGGUUUGGCGUCUUUCGUGGAUGCCACAGGAC
Put plainly: ITC. The note with it: 1 mM ligand into 50 μM RNA.

Test [6] shares this test system. Put plainly: fluorescence polarization, displacement of Cy3-ODN. The note with it: 3 mM Mg2+, PBS, 0.005% Tween 20, 21 °C.
Test [7] deals with LR1 (RNA, aptamer) GGGAGAGGAGGGAGAUAGAUAUCAAACUAAACACUUGAGGCUCGAUCUUUAUUGUAUUUACACCAUCUUGUGCAUCAUUUCGUGGAUGCCACAGGAC
Put plainly: ITC. The note with it: 3 mM Mg2+, PBS, 1 mM ligand into 20 μM RNA, ligand-into-buffer heat subtracted.

The subject of test [8] is LR2 (RNA, aptamer) GGGAGAGGAGGGAGAUAGAUAUCAAUUACCACGCUUGAGGCUCGAUCUUUUGCUUUGUCCAUCUAGUGUUGUCUGCGUUUCGUGGAUGCCACAGGAC
Put plainly: fluorescence polarization, displacement of Cy3-ODN. The conditions noted are these: 3 mM Mg2+, PBS, 0.005% Tween 20, 21 °C, 100 nM Cy3-ODN, 500 nM RNA, 100 μM compound.

The subject of test [9] is HDB1 (RNA, aptamer) GGGAGAGGAGGGAGAUAGAUAUCAAACCCCAUCUUGAGGCUCGAUCGGCUCGUUUUUCAGGGAUAAGUAGAUUUAGUUUUUCGUGGAUGCCACAGGAC
Put plainly: fluorescence polarization, displacement of Cy3-ODN. The note with it: 3 mM Mg2+, PBS, apparent, 0.005% Tween 20, 21 °C, shortened Cy3-labelled capture ODN displaced, inhibitor vs response fit.

Test [10] concerns LM1 (RNA, aptamer) GGGAGAGGAGGGAGAUAGAUAUCAACACUUGAACGUGAGGCUCGAUCUUUUUAGCUUUUUACUGCGGCGUUAACGGUUUUCGUGGAUGCCACAGGAC
Put plainly: fluorescence polarization, displacement of Cy3-ODN. The note with it: 3 mM Mg2+, PBS, apparent, 0.005% Tween 20, 21 °C, shortened Cy3-labelled capture ODN displaced, inhibitor vs response fit.

In test [11] the test system is LM2 (RNA, aptamer) GGGAGAGGAGGGAGAUAGAUAUCAAACUAACAGUCUGAGGCUCGAUCUUUUGCAGAAACUUUCGUCUUUUGGCUAUCUUUCGUGGAUGCCACAGGAC
Put plainly: fluorescence polarization, displacement of Cy3-ODN. The conditions noted are these: 3 mM Mg2+, PBS, 0.005% Tween 20, 21 °C, 100 nM Cy3-ODN, 500 nM RNA, 100 μM compound.

Test [12] relates to HDB2 (RNA, aptamer) GGGAGAGGAGGGAGAUAGAUAUCAAACCGGCACCUGAGGCUCGAUCUUUGUUUGCAAAGGGCAUUGCAUCGAUGUGUUUUUCGUGGAUGCCACAGGAC
Put plainly: ITC. The conditions noted are these: 3 mM Mg2+, PBS, 1 mM ligand into 20 μM RNA, ligand-into-buffer heat subtracted, legend also prints HDB1.

Test [13] deals with LM1 (RNA, aptamer) GGGAGAGGAGGGAGAUAGAUAUCAACACUUGAACGUGAGGCUCGAUCUUUUUAGCUUUUUACUGCGGCGUUAACGGUUUUCGUGGAUGCCACAGGAC
Put plainly: ITC. The note with it: 3 mM Mg2+, PBS, 1 mM ligand into 20 μM RNA, ligand-into-buffer heat subtracted.

Test [14] relates to P7 (RNA, aptamer) GGGAGAGGAGGGAGAUAGAUAUCAACAGGAACGGUUGAGGCUCGAUCAGAUACCCCUCGCUACAAUGCGGCAUUGGGUUUCGUGGAUGCCACAGGAC
Put plainly: fluorescence polarization, displacement of Cy3-ODN. The note with it: 3 mM Mg2+, PBS, 0.005% Tween 20, 21 °C, 9-nt Cy3-ODN, 500 nM RNA, 0.1-1 mM compound.

The subject of test [15] is I5 (RNA, aptamer) GGGAGAGGAGGGAGAUAGAUAUCAAACGAACGGCAUGAGGCUCGAUCUACGUUACCCCUCUGACGUUGGCAUUUGUGUUUCGUGGAUGCCACAGGAC
Put plainly: fluorescence polarization, displacement of Cy3-ODN. The conditions noted are these: 3 mM Mg2+, PBS, apparent, 0.005% Tween 20, 21 °C, 9-nt Cy3-ODN displaced, inhibitor vs response fit.

The structures appear in SMILES notation.

Consider `CC1(C)S[C@@H]2[C@H](NC(=O)[C@H](N)c3ccccc3)C(=O)N2[C@H]1C(=O)O`, for which, in test [1], the binding entry is on record as “no”.

`Cc1cc2nc3c(=O)[nH]c(=O)nc-3n(C[C@H](O)[C@H](O)[C@H](O)CO)c2cc1C`: the Kd is 9.88 ± 1.09 µM in [2] and ~ 5 μM in [4]. In [3], the binding result is on record as “weak”.

As to `Cn1c(=O)c2[nH]cnc2n(C)c1=O`, the Kd in test [5] is 70.3 ± 6.33 µM; in test [6] (apparent, 9-nt Cy3-ODN displaced, inhibitor vs response fit) it was ~ 54 μM. Moreover, in test [1], the binding result is listed as “no”.

Take `Cn1c(=O)c2c(ncn2C)n(C)c1=O`: the binding result in [5] (no interaction) was “no”; in test [6] (9-nt Cy3-ODN tracer, no binding observed), “no”.

As to `N=C(N)NCCC[C@H](N)C(=O)O`, the binding result in test [1] was “no”.

As for `NC[C@@H]1O[C@H](O[C@H]2[C@@H](O)[C@H](O[C@@H]3[C@@H](O)[C@H](N)C[C@H](N)[C@H]3O[C@H]3O[C@H](CN)[C@@H](O)[C@H](O)[C@H]3N)O[C@@H]2CO)[C@H](N)[C@@H](O)[C@@H]1O`, the Kd is 34.7 ± 1.97 µM in [7]; ~ 10 μM in test [9]; ~ 3 μM in test [1] (apparent, shortened Cy3-labelled capture ODN displaced, inhibitor vs response fit); ~ 4 μM in test [10]; 55.9 ± 3.57 µM in test [12]; 38.0 ± 2.10 µM in test [13]. Moreover, the binding result in test [8] and in test [11] was “yes” each time.

Consider `NC[C@H]1O[C@H](O[C@H]2[C@H](O)[C@@H](O[C@H]3O[C@H](CO)[C@@H](O)[C@H](N)[C@H]3O)[C@H](N)C[C@@H]2N)[C@H](N)[C@@H](O)[C@@H]1O`, for which the Kd in test [7] stood at 130.0 ± 30.9 µM.

On to `Nc1nc2c(ncn2[C@@H]2O[C@H](COP(=O)(O)OP(=O)(O)O)[C@@H](OP(=O)(O)OP(=O)(O)O)[C@H]2O)c(=O)[nH]1`, for which the binding result in test [14] is “weak”.

On to `Nc1ncnc2c1ncn2[C@@H]1O[C@@H]2COP(=O)(O)O[C@H]2[C@H]1O`, for which the binding result in test [1] is on record as “no”.

`O=P(O)(O)O[C@H]1[C@@H](OP(=O)(O)O)[C@H](OP(=O)(O)O)[C@@H](OP(=O)(O)OP(=O)(O)O)[C@H](OP(=O)(O)O)[C@H]1OP(=O)(O)O`: the Kd in [15] was ~ 76 μM.

The values above are taken from publication PMC12376241 (2025).
